# Test results published in ChEMBL document CHEMBL1156935, “Discovery of potent BACE-1 inhibitors containing a new hydroxyethylene (HE) scaffold: exploration of P1' alkoxy residues and an aminoethylene (AE) central core” (Bioorg Med Chem, 2010).
# Key:
# Cathepsin D = Cathepsin D (Homo sapiens, UniProt P07339)
# Description: Inhibition of human cathepsin D
# Beta-secretase 1 = Beta-secretase 1 (Homo sapiens, UniProt P56817)
# Description: Inhibition of human BACE1 expressed in Escherichia coli BL21(DE3) by resolved fluorescence assay
# Homo sapiens = organism: Homo sapiens; assay: Selectivity for human BACE1 over human cathepsin D
# Sequence of Cathepsin D (P07339 65-162 limits assumed): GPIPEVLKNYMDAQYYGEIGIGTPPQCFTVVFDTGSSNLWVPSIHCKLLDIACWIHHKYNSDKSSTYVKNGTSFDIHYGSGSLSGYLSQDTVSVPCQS
# Sequence of Cathepsin D (P07339 169-412 limits assumed): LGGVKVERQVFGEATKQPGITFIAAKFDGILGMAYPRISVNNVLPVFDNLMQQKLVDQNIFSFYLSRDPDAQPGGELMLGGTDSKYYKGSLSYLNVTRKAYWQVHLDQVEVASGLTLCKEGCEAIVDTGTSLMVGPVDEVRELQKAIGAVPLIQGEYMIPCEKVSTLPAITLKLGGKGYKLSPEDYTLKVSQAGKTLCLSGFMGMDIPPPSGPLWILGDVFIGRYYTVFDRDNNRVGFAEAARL
# Sequence of Beta-secretase 1 (P56817 whole entry): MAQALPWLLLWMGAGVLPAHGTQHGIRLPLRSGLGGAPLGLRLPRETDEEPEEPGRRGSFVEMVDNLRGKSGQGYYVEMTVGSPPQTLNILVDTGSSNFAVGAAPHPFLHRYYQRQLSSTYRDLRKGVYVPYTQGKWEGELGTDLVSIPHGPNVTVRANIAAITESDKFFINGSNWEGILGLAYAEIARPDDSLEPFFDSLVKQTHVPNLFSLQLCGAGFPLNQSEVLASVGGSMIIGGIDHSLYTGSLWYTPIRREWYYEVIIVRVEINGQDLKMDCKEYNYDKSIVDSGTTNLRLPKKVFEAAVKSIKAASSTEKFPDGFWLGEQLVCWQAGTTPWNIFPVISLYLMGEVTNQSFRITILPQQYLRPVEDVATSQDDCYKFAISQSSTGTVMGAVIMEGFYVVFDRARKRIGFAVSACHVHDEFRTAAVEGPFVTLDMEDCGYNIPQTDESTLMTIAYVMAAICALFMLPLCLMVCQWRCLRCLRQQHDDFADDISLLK
smiles,measurement,setting,value
CCO[C@H](C[C@H](O)[C@H](COc1cc(F)cc(F)c1)NC(=O)c1cc(C(=O)N[C@H](C)c2ccccc2)cc(N(C)S(C)(=O)=O)c1)C(=O)N[C@H](C(=O)NCc1ccccc1)C(C)C,Ki,Cathepsin D,3.35 µM
same,Ki,Beta-secretase 1,0.0021 µM
same,Ratio Ki,Homo sapiens,> 1500
CCCO[C@H](C[C@H](O)[C@H](COc1cc(F)cc(F)c1)NC(=O)c1cc(C(=O)N[C@H](C)c2ccccc2)cc(N(C)S(C)(=O)=O)c1)C(=O)N[C@H](C(=O)NCc1ccccc1)C(C)C,Ki,Cathepsin D,0.061 µM
same,Ki,Beta-secretase 1,0.003 µM
"CO[C@H](C[C@H](N=[N+]=[N-])C(COc1cc(F)cc(F)c1)NC(=O)c1cc(C(=O)N[C@H](C)c2ccccc2)cc(N(C)S(C)(=O)=O)c1)C(=O)N[C@H](C(=O)NCc1ccccc1)C(C)C (single isomer, unassigned)",Ki,Cathepsin D,> 5 µM
same,Ki,Beta-secretase 1,0.07 µM
"CO[C@H](CCC(COc1cc(F)cc(F)c1)NC(=O)c1cc(C(=O)N[C@H](C)c2ccccc2)cc(N(C)S(C)(=O)=O)c1)C(=O)N[C@H](C(=O)NCc1ccccc1)C(C)C (single isomer, unassigned)",Ki,Cathepsin D,> 5 µM
same,Ki,Beta-secretase 1,0.13 µM
CC(C)[C@H](NC(=O)[C@@H](C[C@H](O)[C@H](COc1cc(F)cc(F)c1)NC(=O)c1cc(C(=O)N[C@H](C)c2ccccc2)cc(N(C)S(C)(=O)=O)c1)OCC1CC1)C(=O)NCc1ccccc1,Ki,Beta-secretase 1,0.0013 µM
C=CCO[C@H](C[C@H](O)[C@H](COc1cc(F)cc(F)c1)NC(=O)c1cc(C(=O)N[C@H](C)c2ccccc2)cc(N(C)S(C)(=O)=O)c1)C(=O)N[C@H](C(=O)NCc1ccccc1)C(C)C,Ki,Cathepsin D,0.13 µM
same,Ki,Beta-secretase 1,0.0033 µM
"CO[C@H](C[C@H](N)C(COc1cc(F)cc(F)c1)NC(=O)c1cc(C(=O)N[C@H](C)c2ccccc2)cc(N(C)S(C)(=O)=O)c1)C(=O)N[C@H](C(=O)NCc1ccccc1)C(C)C (single isomer, unassigned)",Ki,Cathepsin D,> 5 µM
same,Ki,Beta-secretase 1,0.14 µM
CC(C)[C@H](NC(=O)[C@@H](C[C@H](O)[C@H](COc1cc(F)cc(F)c1)NC(=O)c1cc(C(=O)N[C@H](C)c2ccccc2)cc(N(C)S(C)(=O)=O)c1)OCc1ccccc1)C(=O)NCc1ccccc1,Ki,Cathepsin D,0.062 µM
same,Ki,Beta-secretase 1,0.02 µM
same,Ratio Ki,Homo sapiens,1.6
